According to patent EP0802730B1, “PESTICIDAL COMPOUNDS” (BTG INTERNATIONAL LIMITED, priority 1995, dated 1996):
≈ marks a conversion by molar mass, not a printed value. Read-outs that look alike come from different tables or passages of the source.

Key:
Rhizoctonia solani = assay: Fungitoxicity in vitro on potato dextrose agar; assay type: cell-based; details: R. solani, 4 days
[1] = tested on: Pyricularia oryzae (=Magnaporthe grisea); assay type: cell-based; details: P. oryzae, 7 days
[2] = tested on: Mustard beetles (PC) (Phaedon cochleariae Fab); assay type: in vivo; details: NA = lack of detectable activity; for PC (LD50): 1 µl acetone drop applied ventrally to adults, kill at 48 hours; for PC LD50 (µg/insect): Tables 10, 13, 14
Experimental: A one microlitre drop of an acetone solution of the test compound was applied ventrally to adult mustard beetles using a micro drop applicator. The treated insects were maintained for 48 hours after which time kill was assessed. Two replicates each of 20 to 25 mustard beetles were used at each dose level and 5 dose levels were treated comparably. LD50 values were calculated as for houseflies.

[3] = tested on: resistant whitefly (BT) (Bemisia tabaci), Ned 7; assay: Whitefly vial test, resistant strain Ned 7; assay type: in vivo; details: 48 h, read-out: BT (Ned 7) (LC50)
Experimental: Acetone solutions (0.100 ml) of the test compounds were placed in 10 ml glass vials and evaporated with rotation to deposit a film of the compound. Thirty adult whiteflies were placed inside the vial, then after 60 minutes, the treated insects were transferred onto untreated cotton leaf discs which were kept moist on a bed of agar gel. The temperature was maintained at 25°C and mortality assessed after 48 hours. Three replicates were used at each of 5 to 7 dose levels per compound. LC50 values (ppm solution) were calculated by using a computer software package ("Polo-PC available from LeOra Software, Berkeley, California) (See M.R. Cahill and B. Hackett in Proceedings Brighton Crop Protection Conference, 1992). The test was carried out using a susceptible strain of whitefly (SUD-S) which was collected in Sudan in 1978 from cotton.
The test of Example 16 (BT (SUD-S)) was repeated using a resistant strain of whitefly (Ned 7). The Ned 7 strain was collected in the Netherlands in April, 1993 from hibiscus by J. Fransen and is highly resistant to organophosphate and carbamate insecticides and the insect growth regulator buprofezin.

[4] = tested on: Houseflies (MD) (Musca domestica); assay type: in vivo; details: for MD (LD50): topical 1 µl drop in acetone on female flies, kill assessed 24 and 48 hours; for MD LD50 (µg/insect): Tables 10, 13, 14, NA = lack of detectable activity
Experimental: Female flies were treated on the thorax with a one microlitre drop of test compound dissolved in acetone. Two replicates of 15 flies were used at each dose rate and 6 dose rates were used per compound under test. After treatment, the flies were maintained at a temperature of 20° ± 1°C and kill was assessed 24 and 48 hours after treatment. LD50 values were calculated in micrograms of test compound per fly (see Sawicki et al., Bulletin of the World Health Organisation, 35, 893 (1966) and Sawicki et al., Entomologia and Exp. Appli 10, 253, (1967).

[5] = tested on: Whitefly (BT) (Bemisia tabaci), susceptible strain (SUD-S); assay: Whitefly residual film vial test, susceptible strain SUD-S; assay type: in vivo
Experimental: Acetone solutions (0.100 ml) of the test compounds were placed in 10 ml glass vials and evaporated with rotation to deposit a film of the compound. Thirty adult whiteflies were placed inside the vial, then after 60 minutes, the treated insects were transferred onto untreated cotton leaf discs which were kept moist on a bed of agar gel. The temperature was maintained at 25°C and mortality assessed after 48 hours. Three replicates were used at each of 5 to 7 dose levels per compound.

[6] = tested on: Mites (TU) (Tetranychus urticae), susceptible strain (GSS); assay: Mite immersion test, susceptible strain GSS; assay type: in vivo
Experimental: (§1) 25 adult female mites were immersed in 35 µl of a solution of the test compound in a 1:4 acetone-water mixture for 30 seconds. The treated insects were maintained at 21° ± 2°C and kill was assessed 72 hours after treatment. […] Three replicates of 25 mites each were used at each dose rate and 5 or 6 dose rates were used per compound under test. LC50 values were calculated in ppm of the solution of the test compound per insect. The test was carried out using a susceptible strain of mites (GSS) supplied by Schering, AG, Berlin.

Aspergillus niger = assay: Fungitoxicity in vitro on potato dextrose agar; assay type: cell-based; details: A. niger, 4 days
[7] = tested on: resistant mites (TU) (Tetranychus urticae), NYR-Bif-1000; assay: Mite immersion test, bifenthrin-resistant strain; assay type: in vivo; details: 72 h, read-out: TU (NYR-Bif-1000) (LC50)
Experimental: as §1
The test of Example 16 (TU(GSS)) was repeated using a strain of mites which is resistant to bifenthrin (NYR-Bif-1000). The NYR-Bif-1000 strain was provided by the Department of Entomology, Cornell University, New York.

[8] = tested on: Myzus persicae, susceptible strain (US1L); assay: Aphid dip test, susceptible strain; assay type: in vivo
Experimental: Activity against resistant (R) and susceptible (S) strains of aphid (Myzus persicae) was assessed using the following method.
Entrapment rings of fluon were painted halfway up the inside of 4 cm lengths of glass tubing (1.5 cm diameter), and squares of insect-proof gauze were attached to one end of each tube by elastic bands. Fifteen apterous adults were then gently transferred into the tubes using a sable-hair brush, and the tube sealed with a second gauze square.
Tubes containing aphids were dipped into insecticide solutions for 10 seconds, dried on blotting paper, and then inverted and tapped to cause treated aphids to fall to the unimmersed end of each tube. Handling mortality (usually zero or very slight) was scored after 1 hour, when aphids were transferred onto chinese cabbage leaf-discs (35 mm diameter) on an agar bed (25 mm in depth) in disposible plastic containers (30 mm high) and confined by applying a ring of fluon to the exposed lip of the container. Containers were store upright, without lids, in a constant environment facility maintained at 25°C under continuous room lighting. Mortality was assessed at 24, 48 and 72 hours. Two replicates of 15 aphids each were used at each dose rate and 5 or 6 dose rates were used per compound under test.
The test was carried out using a susceptible strain of aphids (US1L) collected in the field in East Anglia, UK and an extremely resistant strain of aphids (794Jz) (R3 esterase, sensitive AChE) collected from glasshouses in the UK.
The values given are % mortality corrected for control data. The control comprised the test solution without active ingredient.

[9] = tested on: Diamond-back moth (PX) (Plutella xylostella); assay: Diamond-back moth larvae topical test (failure to pupate); assay type: in vivo; details: fifth instar larvae, 0.5 µl drop; failure to pupate 5 days later
Experimental: Fifth instar larvae were treated with a 0.5 µl drop of test compound in acetone. Three replicates of 10 larvae each were used at each dose rate and 5 dose rates were used per compound under test. After treatment, the larvae were maintained at about 22°C, and kill was assessed as failure to pupate 5 days later. LD50 values were calculated as for houseflies.

[10] = ppm solution of test compound, 60 minutes film exposure, mortality after 48 hours, read-out: BT(SUD-S) (LC50)
[11] = ppm solution of test compound, 30 seconds immersion, kill at 72 hours, read-out: TU(GSS) (LC50)
[12] = strain S, 100 PPM, read-out: % mortality corrected for control data
[13] = strain S, read-out: % mortality corrected for control data
[14] = 48 h, Tables 10, 13, 14, susceptible strain, NA = lack of detectable activity, read-out: BT LC50 (ppm/insect)
[15] = 72 h, Tables 10, 13, 14, susceptible strain, NA = lack of detectable activity, read-out: TU LC50 (ppm/insect)

## COC(=O)Nc1nc2ccccc2[nH]1 [Carbendazim, carbendazim, reference compound]
Rhizoctonia solani; 1 mg 1^-1
  % inhibition of growth in colony diameter in agar plates, Activity at 1 mg 1^-1: 3.3%
Rhizoctonia solani; 5 mg 1^-1
  % inhibition of growth in colony diameter in agar plates, Activity at 5 mg 1^-1: 82.4%
[1]; 1 mg 1^-1
  % inhibition of growth in colony diameter in agar plates, Activity at 1 mg 1^-1: 14.7%
[1]; 5 mg 1^-1
  % inhibition of growth in colony diameter in agar plates, Activity at 5 mg 1^-1: 99.8%

## CCCCCCCCCCCCC1=C(OC(C)=O)C(=O)c2ccccc2C1=O [Compound A, 2-n-dodecyl-3-ethanoyloxynaphthalene-1,4-dione, reference compound]
[2]
  PC (LD50): 0.36 µg/insect
[3]
  LC50: 470 µg/mL (≈ 1220 µM)
[4]
  MD (LD50): >> 20 µg/insect
[5]; [10]
  LC50: 82 µg/mL (≈ 213 µM)
[6]; [11]
  LC50: 64 µg/mL (≈ 166 µM)

## CCC(C)(C)C1=C(O)C(=O)c2ccccc2C1=O [Example 1, 2-(1,1-dimethylpropyl)-3-hydroxynaphthalene-1,4-dione]
[2]
  PC (LD50): c. 10 µg/insect
Aspergillus niger
  % inhibition of growth in colony diameter in agar plates, Activity at 100 mg 1^-1: 63%
[7]
  LC50: 84 µg/mL (≈ 344 µM)
Rhizoctonia solani
  % inhibition of growth in colony diameter in agar plates, Activity at 100 mg 1^-1: 95%
[4]
  MD (LD50): < 10 µg/insect
[5]; [10]
  LC50: 19 µg/mL (≈ 77.8 µM)
[6]; [11]
  LC50: 39 µg/mL (≈ 160 µM)
[8]; [12]
  mortality at 100 ppm: 11%
[8]; [13]
  mortality at 250 ppm: 26%
[1]
  % inhibition of growth in colony diameter in agar plates, Activity at 100 mg 1^-1: 100%

## CCC(C)(C)C1=C(OC(C)=O)C(=O)c2ccccc2C1=O [Example 2, 2-(1,1-dimethylpropyl)-3-ethanoyloxy-naphthalene-1,4-dione]
[2]
  PC (LD50): c. 6.0 µg/insect
Aspergillus niger
  % inhibition of growth in colony diameter in agar plates, Activity at 100 mg 1^-1: 38%
[7]
  LC50: 83 µg/mL (≈ 290 µM)
[9]
  PX (LD50): c. 10 µg/insect
Rhizoctonia solani
  % inhibition of growth in colony diameter in agar plates, Activity at 100 mg 1^-1: 81%
[4]
  MD (LD50): < 10 µg/insect
[5]; [10]
  LC50: 4.8 µg/mL (≈ 16.8 µM)
[6]; [11]
  LC50: 64 µg/mL (≈ 224 µM)
[8]; strain S, 40 PPM, read-out: % mortality corrected for control data
  mortality at 40 ppm: 20%
[8]; [13]
  mortality at 250 ppm: 27%
[1]
  % inhibition of growth in colony diameter in agar plates, Activity at 100 mg 1^-1: 89%

## CC(C)(C)C1=C(O)C(=O)c2ccccc2C1=O [Example 3, 2-(t-butyl)-3-hydroxy-naphthalene-1,4-dione]
[2]
  PC (LD50): c. 6.0 µg/insect
Aspergillus niger
  % inhibition of growth in colony diameter in agar plates, Activity at 100 mg 1^-1: 61%
[9]
  PX (LD50): c. 8.0 µg/insect
Rhizoctonia solani
  % inhibition of growth in colony diameter in agar plates, Activity at 100 mg 1^-1: 92%
[4]
  MD (LD50): c. 2.5 µg/insect
[5]; [10]
  LC50: 8 µg/mL (≈ 34.7 µM)
[6]; [11]
  LC50: 81 µg/mL (≈ 352 µM)
[8]; [12]
  mortality at 100 ppm: 27%
[8]; [13]
  mortality at 250 ppm: 87%
[1]
  % inhibition of growth in colony diameter in agar plates, Activity at 100 mg 1^-1: 100%

## C=CC(C)(C)C1=C(OC(=O)CCC)C(=O)c2ccccc2C1=O [Example 5]
[2]
  PC (LD50): 6.9 µg/insect
[3]; resistant strain Ned 7, ppm solution of test compound
  LC50: 21 µg/mL (≈ 67.2 µM)
[5]; [10]
  LC50: 13 µg/mL (≈ 41.6 µM)
[6]; [11]
  LC50: 84 µg/mL (≈ 269 µM)

## C=CC(C)(C)C1=C(OC(=O)CCCCCCCCC)C(=O)c2ccccc2C1=O [Example 8]
[2]
  PC (LD50): c. 8.0 µg/insect
[9]
  PX (LD50): c. 0.1 µg/insect
[6]; [11]
  LC50: 630 µg/mL (≈ 1590 µM)

## C=CC(C)(C)C1=C(OCc2ccccc2)C(=O)c2ccccc2C1=O [Example 13]
[2]
  PC (LD50): > 20 µg/insect
[9]
  PX (LD50): c. 8.0 µg/insect
[4]
  MD (LD50): > 20 µg/insect
[5]; [10]
  LC50: > 1000 µg/mL
[6]; [11]
  LC50: > 1000 µg/mL

## CC(=O)OC1=C(CC2(C)CCCCC2)C(=O)c2ccccc2C1=O [Example 33, 2-acetoxy-3-((1'-methylcyclohexyl)-methyl)-naphthalene-1,4-dione]
[2]
  PC LD50 (µg/insect): 2.8 µg/insect
[4]
  MD LD50 (µg/insect): 5.7 µg/insect
[5]; [14]
  LC50: 5.1 µg/mL (≈ 15.6 µM)
[6]; [15]
  LC50: 2.3 µg/mL (≈ 7.05 µM)
[8]; read-out: MP % kill 100 ppm
  mortality at 100 ppm: 30%

## CC(C)(C)CCCCC1=C(O)C(=O)c2ccccc2C1=O [Example 38, 2-(5,5-dimethylhexyl)-3-hydroxy-naphthalene-1,4-dione]
[2]
  PC LD50 (µg/insect): c8 µg/insect
[4]
  MD LD50 (µg/insect): 5.3 µg/insect
[5]; [14]
  LC50: ~60 µg/mL (≈ 210 µM)
[6]; [15]
  LC50: 3.5 µg/mL (≈ 12.2 µM)
[8]; read-out: MP % kill 100 ppm
  mortality at 100 ppm: ~100%

## CC(=O)OC1=C(CCC(C)(C)C)C(=O)c2ccccc2C1=O [Example 47, 2-ethanoyloxy-3-(3,3-dimethylbutyl)-naphthalene-1,4-dione]
[2]
  PC LD50 (µg/insect): c1 µg/insect
[4]
  MD LD50 (µg/insect): 2.2 µg/insect
[5]; [14]
  LC50: 2.1 µg/mL (≈ 6.99 µM)
[6]; [15]
  LC50: ~20 µg/mL (≈ 66.6 µM)
[8]; read-out: MP % kill 100 ppm
  mortality at 100 ppm: ~100%

## CCCN(CCOc1c(Cl)cc(Cl)cc1Cl)C(=O)n1ccnc1 [Prochloraz, prochloraz, reference compound]
Aspergillus niger; 1 mg 1^-1
  % inhibition of growth in colony diameter in agar plates, Activity at 1 mg 1^-1: 97.8%
